# Reference: patent US12297179B2, “Crystalline and salt forms of an organic compound and pharmaceutical compositions thereof” (Servier Pharmaceuticals LLC, priority 2018, dated 2025)
# Where a name gives a salt, the structure may show the parent alone. Read-outs that look alike come from different tables or passages of the source.
# Assays:
# Assay type in all cases: physicochemical
# [1] = Kinetic solubility in bio-relevant media (SGF/FaSSGF, FaSSIF, FeSSIF) and H2O at 37° C., with pH of supernatant; details: for Solubility: 37° C.; for pH: supernatant
# Protocol: (§1) Weigh 100 mg of sodium chloride into a 50-mL volumetric flask. Add appropriate volume of purified water and sonicate until all solids are completely dissolved. Add sufficient purified water closely to the target volume and adjust to pH 1.6. Weigh 3 mg of FaSSIF/FeSSIF/FaSSGF powder into the volumetric flask and sonicate until the powder is completely dissolved. Dilute to target volume with purified water and mix well.
# as §1, with “0.170 g of monobasic sodium phosphate, 0.021 g of sodium hydroxide and 0.31 g” for “100 mg”, “6.5.” for “1.6.”, “110” for “3”
# as §1, with “0.41 mL of glacial acetic acid, 0.202 g of sodium hydroxide and 0.594 g” for “100 mg”, “5.0.” for “1.6.”, “560” for “3”
# An Agilent 1260 HPLC with DAD detector was utilized and detailed chromatographic conditions for solubility analysis are listed in Table 5.
# Kinetic solubility of Tris salt Form A and free acid Form D were measured in three bio-relevant media (SGF, FaSSIF and FeSSIF) at 37° C. In details, ˜30 mg solids were suspended into 4.0 mL of each medium initially and equilibrated via shaking (500 rpm) at 37° C. Approximately 0.8 mL suspension was extracted at each time point of 15/30/60/120 mins and 24 hrs. The supernatant and precipitate were separated by centrifugation (10000 rpm, ˜3 mins) followed by concentration (HPLC) and pH measurement for supernatant and the corresponding solid forms were characterized by XRPD.
# Due to the thermodynamic stability of Tris salt Form C, further evaluation was conducted, including kinetic solubility in three bio-relevant media (FaSSGF/FaSSF/FeSSIF) and H2O at 37° C.
# [2] = Hygroscopicity by dynamic vapor sorption (DVS); details: DVS, humidity varied from 0% RH to 80% RH at 25° C.
# Protocol: DVS was measured via a SMS (Surface Measurement Systems) DVS Intrinsic. The relative humidity at 25° C. was calibrated against deliquescence point of LiCl, Mg(NO3)2 and KCl.
# [3] = Thermodynamic stability: slurry competition between Tris salt Forms A and C; details: DMSO/EtOH (1:8, v/v) and EtOH, 5° C./RT/50° C./75° C., 7 days
# Protocol: The thermodynamic stability relationship between Tris salt Forms A and C was investigated via slurry competition experiments in 2 process related solvent systems, DMSO/EtOH (1:8, v/v) and EtOH at 4 temperature conditions (5° C./RT/50° C./75° C.). Two stages of slurry competition experiments were conducted, of which the first stage included temperature as a variable and the second stage used newly opened reagents to minimize the effect of absorbed moisture. Typical experimental procedures are described below.
# About 5-10 mg of crystalline Tris salt Form C was first dissolved in ˜1.0 mL of corresponding solvent to form nearly saturated solution under corresponding temperature (equilibrating method: stirring magnetically, ˜1000 rpm, ˜2 hrs). Then ˜15 mg of each form (crystalline Tris salt Forms A and C) was physically mixed, followed by addition of the nearly saturated solution to form a suspension. The suspensions were then stirred (˜1000 rpm) under corresponding temperature for 7 days (a small amount of solids were sampled at 2 day point in the second stage experiments). The obtained solids were isolated via centrifugation (10000 rpm, 2 mins) and tested by XRPD to confirm the form.
# [4] = Thermodynamic stability study: slurry competition among free acid Form A/B/C/D; details: 50° C. and 70° C.
# Protocol: To investigate and compare the thermodynamic stability among the identified four crystalline forms of Compound 1 (free acid Form A/B/C/D), two stages of slurry competition experiments were conducted, of which the first one was to study the anhydrous solvent systems and the second stage was solvent systems with different water activities (aw).
# In the first stage, ˜2 mg of each solid form (free acid Form A/B/C/D) was physically mixed first, followed by addition of 0.5 mL solvent to form suspension. At various slurrying conditions, a small amount of solid was isolated after ˜7 days for XRPD test.
# To further explore any impact of water content on the conversion relationship, six conditions with different water activities and temperatures were applied. Approximately 2 mg of each solid form (free acid Form A/B/C/D) was mixed and suspended in 1.0 mL corresponding solvent systems. After slurry for ˜1 month, the solids were isolated for XRPD test.
# [5] = FaSSIF (blank pH 6.5), 120 mins
# [6] = FeSSIF (blank pH 5.0), 120 mins
# [7] = anhydrous solvent systems, slurry at RT, ~7 days
# [8] = solvent mixtures with different water activities (aw: 0~1), RT, ~1 month
SMILES,"Solubility ([1]; FaSSIF, 15 mins)","Solubility ([1]; FaSSIF, 30 mins)","Solubility ([1]; FaSSIF, 60 mins)","Solubility ([1]; FaSSIF, 120 mins)","Solubility ([1]; FaSSIF, 24 hrs)","Solubility ([1]; FeSSIF, 15 mins)","Solubility ([1]; FeSSIF, 30 mins)","Solubility ([1]; FeSSIF, 60 mins)","Solubility ([1]; FeSSIF, 120 mins)","Solubility ([1]; FeSSIF, 24 hrs)","Solubility ([1]; SGF, 30 mins)","Solubility ([1]; SGF, 60 mins)","Solubility ([1]; SGF, 24 hrs)","pH ([1]; FaSSIF (blank pH 6.5), 15 mins)","pH ([1]; FaSSIF (blank pH 6.5), 30 mins)","pH ([1]; FaSSIF (blank pH 6.5), 60 mins)","pH [1, 5]","pH ([1]; FaSSIF (blank pH 6.5), 24 hrs)","form after slurry competition (XRPD), thermodynamic stability [4, 7]","form after slurry competition (XRPD), thermodynamic stability [4, 8]",also measured
Cc1ccccc1-c1ccc(-c2cc(C(=O)O)c3c(c2)nnn3C)cc1 [Tris salt Form A],490 µg/mL,260 µg/mL,200 µg/mL,170 µg/mL,130 µg/mL,160 µg/mL,200 µg/mL,290 µg/mL,81 µg/mL,120 µg/mL,94 µg/mL,100 µg/mL,110 µg/mL,7.5,7.5,7.5,7.5,7.5,,,"Solubility ([1]; SGF, 15 mins): 60 µg/mL; solubility at 24 h ([1]; SGF, FaSSIF and FeSSIF, 37 °C, fassgf or other biorelevant, thermodynamic from solid, all SGF/FaSSIF/FeSSIF media, at 24 hours point): > 100 µg/mL; pH ([1]; FeSSIF (blank pH 5.0), 15 mins): 5.4; pH ([1]; FeSSIF (blank pH 5.0), 30 mins): 5.5; pH ([1]; FeSSIF (blank pH 5.0), 60 mins): 5.5; pH [1, 6]: 5.5; pH ([1]; FeSSIF (blank pH 5.0), 24 hrs): 5.5; pH ([1]; SGF (blank pH 1.8), 15 mins): 6.6; pH ([1]; SGF (blank pH 1.8), 30 mins): 7.2; pH ([1]; SGF (blank pH 1.8), 60 mins): 7.3; pH ([1]; SGF (blank pH 1.8), 120 mins): 7.4; pH ([1]; SGF (blank pH 1.8), 24 hrs): 7.4; moisture uptake [2]: ~5 wt %; form after slurry competition (XRPD), thermodynamic stability [3]: converted to Tris salt Form C"
Cc1ccccc1-c1ccc(-c2cc(C(=O)O)c3c(c2)nnn3C)cc1 [free acid Form B],,,,,,,,,,,,,,,,,,,converted to Form D,converted to Form D,
Cc1ccccc1-c1ccc(-c2cc(C(=O)O)c3c(c2)nnn3C)cc1 [free acid Form A],,,,,,,,,,,,,,,,,,,converted to Form D,converted to Form D,

# Now from value to compound, other results behind:
"Solubility ([1]; FaSSIF, 15 mins)","Solubility ([1]; FaSSIF, 30 mins)","Solubility ([1]; FaSSIF, 60 mins)","Solubility ([1]; FaSSIF, 120 mins)","Solubility ([1]; FaSSIF, 24 hrs)","Solubility ([1]; FeSSIF, 15 mins)","Solubility ([1]; FeSSIF, 30 mins)","Solubility ([1]; FeSSIF, 60 mins)","Solubility ([1]; FeSSIF, 120 mins)","Solubility ([1]; FeSSIF, 24 hrs)","Solubility ([1]; SGF, 30 mins)","Solubility ([1]; SGF, 60 mins)","Solubility ([1]; SGF, 24 hrs)","pH ([1]; FaSSIF (blank pH 6.5), 15 mins)","pH ([1]; FaSSIF (blank pH 6.5), 30 mins)","pH ([1]; FaSSIF (blank pH 6.5), 60 mins)","pH [1, 5]","pH ([1]; FaSSIF (blank pH 6.5), 24 hrs)","form after slurry competition (XRPD), thermodynamic stability [4, 7]","form after slurry competition (XRPD), thermodynamic stability [4, 8]",SMILES,also measured
3.8 µg/mL,4.3 µg/mL,4.8 µg/mL,5.0 µg/mL,4.8 µg/mL,5.6 µg/mL,7.3 µg/mL,5.9 µg/mL,7.7 µg/mL,6.4 µg/mL,0.11 µg/mL,0.14 µg/mL,0.18 µg/mL,6.4,6.5,6.5,6.5,6.4,more stable than Form A/B/C,more stable than Form A/B/C,Cc1ccccc1-c1ccc(-c2cc(C(=O)O)c3c(c2)nnn3C)cc1 [free acid Form D],"Solubility ([1]; FaSSIF and FeSSIF, 37 °C, fassgf or other biorelevant, thermodynamic from solid, in FaSSIF and FeSSIF, read-out: solubility): 3 to 8 µg/mL; solubility at 120 min ([1]; SGF, 37 °C, pH 1.6, fassgf or other biorelevant, thermodynamic from solid, 120 mins): 0.13 µg/mL; Solubility ([1]; SGF, 37 °C, pH 1.6, fassgf or other biorelevant, thermodynamic from solid, in SGF, read-out: solubility): < 1 µg/mL; pH ([1]; FeSSIF (blank pH 5.0), 15 mins): 5.0; pH ([1]; FeSSIF (blank pH 5.0), 30 mins): 5.0; pH ([1]; FeSSIF (blank pH 5.0), 60 mins): 5.0; pH [1, 6]: 5.0; pH ([1]; FeSSIF (blank pH 5.0), 24 hrs): 5.0; pH ([1]; SGF (blank pH 1.8), 15 mins): 2.0; pH ([1]; SGF (blank pH 1.8), 30 mins): 2.1; pH ([1]; SGF (blank pH 1.8), 60 mins): 2.1; pH ([1]; SGF (blank pH 1.8), 120 mins): 2.1; pH ([1]; SGF (blank pH 1.8), 24 hrs): 2.2; moisture uptake ([2]; listed as freeform Type D): ~5 wt %"
,,,,,,,,,,,,,,,,,,converted to Form D,converted to Form D,Cc1ccccc1-c1ccc(-c2cc(C(=O)O)c3c(c2)nnn3C)cc1 [free acid Form C],
